Source: ChEMBL document CHEMBL1148049, “Antimitotic and cytotoxic flavonols from Zieridium pseudobtusifolium and Acronychia porteri” (J Nat Prod, 1994)
≈ marks a conversion by molar mass, not a printed value.

Test system: KB
Assay: Cytotoxicity against human KB cells
Type: functional, cell-based

| Compound | IC50 |
| --- | --- |
| COc1ccc(-c2oc3c(OC)c(OC)c(OC)c(O)c3c(=O)c2OC)cc1O | 0.04 µg/mL (≈ 0.0989 µM) |
| COc1ccc(-c2oc3c(OC)c(OC)c(OC)c(O)c3c(=O)c2OC)cc1OC | 6 µg/mL (≈ 14.3 µM) |
| COc1cc(-c2oc3c(OC)c(OC)c(OC)c(O)c3c(=O)c2O)cc(O)c1OC | 2 µg/mL (≈ 4.76 µM) |
| COc1ccc(-c2oc3c(OC)c(OC)c(OC)c(O)c3c(=O)c2O)cc1O | 6 µg/mL (≈ 15.4 µM) |
| COc1ccc(-c2oc3c(OC)c(OC)c(OC)c(O)c3c(=O)c2O)cc1OC | 0.1 µg/mL (≈ 0.247 µM) |
| COc1c(OC)c(O)c2c(=O)c(OC)c(-c3ccc(O)c(O)c3)oc2c1OC | 0.44 µg/mL (≈ 1.13 µM) |
| COc1cc(-c2oc3c(OC)c(OC)c(OC)c(O)c3c(=O)c2OC)ccc1O | 0.2 µg/mL (≈ 0.495 µM) |
| COc1ccc(-c2oc3cc(O)c(OC)c(O)c3c(=O)c2OC)cc1O [CENTAUREIDIN] | 0.27 µg/mL (≈ 0.749 µM) |
| COc1cc(-c2oc3c(OC)c(OC)c(OC)c(O)c3c(=O)c2OC)cc(O)c1OC [DIGICITRIN] | 2 µg/mL (≈ 4.6 µM) |

Test system: not listed separately
Assay: Inhibition of tubulin assembly

| IC50 | Compound |
| --- | --- |
| 12 µM | COc1ccc(-c2oc3c(OC)c(OC)c(OC)c(O)c3c(=O)c2OC)cc1O |
| 3 µM | COc1ccc(-c2oc3cc(O)c(OC)c(O)c3c(=O)c2OC)cc1O [CENTAUREIDIN] |
| 4 µM | CC[C@]1(O)C[C@@H]2CN(CCc3c([nH]c4ccccc34)[C@@](C(=O)OC)(c3cc4c(cc3OC)N(C)[C@H]3[C@@](O)(C(=O)OC)[C@H](OC(C)=O)[C@]5(CC)C=CCN6CC[C@]43[C@@H]65)C2)C1 [VINBLASTINE] |
